Measurements published in ChEMBL document CHEMBL3885861, “Open TG-GATES”.

Species: Rattus norvegicus
Test: Open TG-GATES - Regimen: Daily Repeat
Format: toxicity, organism-based, Sprague-Dawley
Parameters: regimen Daily Repeat, gender Male, age 6 weeks
Conditions: in vivo, po, route gavage; for APTT / Bas / Eos / Fbg / Hb / Ht / Lym / MCH / MCHC / MCV / Mono / Neu / PT / Plat / RBC / Ret / WBC: tissue Blood; for KIDNEY_L / KIDNEY_R / KIDNEY_TOTAL: tissue Kidney; for LIVER: tissue Liver; for A/G / ALP / ALT / AST / BUN / CRE / Ca / Cl / DBIL / GLC / IP / K / LDH / Na / PL / RALB / TBIL / TC / TG / TP / gamma-GTP: tissue Plasma
[1] = 50 mg/kg, 72 h, dose level Middle, time 3 day
[2] = 50 mg/kg, […], dose level Middle, time 7 day
[3] = 50 mg/kg, […], dose level Middle, time 14 day
[4] = 50 mg/kg, […], dose level Middle, time 28 day
[5] = 150 mg/kg, 72 h, dose level High, time 3 day
[6] = 150 mg/kg, […], dose level High, time 7 day
[7] = 150 mg/kg, […], dose level High, time 14 day
[8] = 150 mg/kg, […], dose level High, time 28 day

## CN(C)CCC=C1c2ccccc2CCc2ccccc21 [AMITRIPTYLINE]
[1]
  TERMINAL_BW: 221 g
  APTT: 16.6 s
  Bas: 0.2%
  Eos: 1%
  Fbg: 279.2 mg/dL
  Hb: 13.3 g/dL
  Ht: 40%
  Lym: 80.2%
  MCH: 21 pg
  MCHC: 33.3%
  MCV: 63.1 fL
  Mono: 2.6%
  Neu: 15.6%
  PT: 16.3 s
  Plat: 120.1 x10_4/uL
  RBC: 634.6 x10_4/ul
  Ret: 6%
  WBC: 115.2 x10_2/uL
  KIDNEY_L: 0.9 g
  KIDNEY_R: 0.9 g
  KIDNEY_TOTAL: 1.8 g
  LIVER: 10.1 g
  A/G: 0.8
  ALP: 1628.8 IU/L
  ALT: 49.4 IU/L
  AST: 67.6 IU/L
  BUN: 16 mg/dL
  CRE: 0.2 mg/dL
  Ca: 10.9 mg/dL
  Cl: 105.6 meq/L
  DBIL: 0.02 mg/dL
  GLC: 180.6 mg/dL
  IP: 7.8 mg/dL
  K: 4.4 meq/L
  LDH: 62.8 IU/L
  Na: 143.8 meq/L
  PL: 158.4 mg/dL
  RALB: 2.6 g/dL
  TBIL: 0.048 mg/dL
  TC: 87 mg/dL
  TG: 98.8 mg/dL
  TP: 5.8 g/dL
  gamma-GTP: 0.8 IU/L
[2]
  TERMINAL_BW: 255.7 g
  APTT: 15 s
  Bas: 0.4%
  Eos: 1%
  Fbg: 280.6 mg/dL
  Hb: 13.2 g/dL
  Ht: 40%
  Lym: 74.8%
  MCH: 20.7 pg
  MCHC: 33%
  MCV: 62.7 fL
  Mono: 2.8%
  Neu: 20.4%
  PT: 15.5 s
  Plat: 108.4 x10_4/uL
  RBC: 638 x10_4/ul
  Ret: 5.2%
  WBC: 119.8 x10_2/uL
  KIDNEY_L: 1.1 g
  KIDNEY_R: 1.1 g
  KIDNEY_TOTAL: 2.1 g
  LIVER: 11.1 g
  A/G: 0.8
  ALP: 1561.4 IU/L
  ALT: 47.4 IU/L
  AST: 69 IU/L
  BUN: 15.8 mg/dL
  CRE: 0.2 mg/dL
  Ca: 10.9 mg/dL
  Cl: 104.6 meq/L
  DBIL: 0.012 mg/dL
  GLC: 187 mg/dL
  IP: 7.3 mg/dL
  K: 3.8 meq/L
  LDH: 66.4 IU/L
  Na: 143.6 meq/L
  PL: 156.4 mg/dL
  RALB: 2.6 g/dL
  TBIL: 0.046 mg/dL
  TC: 80.4 mg/dL
  TG: 114 mg/dL
  TP: 5.8 g/dL
  gamma-GTP: 1 IU/L
[3]
  TERMINAL_BW: 305.2 g
  APTT: 16.5 s
  Bas: 0.2%
  Eos: 1%
  Fbg: 299 mg/dL
  Hb: 14.4 g/dL
  Ht: 43.2%
  Lym: 77.2%
  MCH: 20.2 pg
  MCHC: 33.4%
  MCV: 60.5 fL
  Mono: 2.8%
  Neu: 18.2%
  PT: 16.2 s
  Plat: 111 x10_4/uL
  RBC: 713.6 x10_4/ul
  Ret: 4%
  WBC: 107.8 x10_2/uL
  KIDNEY_L: 1.2 g
  KIDNEY_R: 1.2 g
  KIDNEY_TOTAL: 2.3 g
  LIVER: 12.6 g
  A/G: 0.8
  ALP: 1627.8 IU/L
  ALT: 43.4 IU/L
  AST: 69.6 IU/L
  BUN: 17 mg/dL
  CRE: 0.2 mg/dL
  Ca: 11 mg/dL
  Cl: 105.4 meq/L
  DBIL: 0.022 mg/dL
  GLC: 186.6 mg/dL
  IP: 7.2 mg/dL
  K: 4 meq/L
  LDH: 72.6 IU/L
  Na: 143.6 meq/L
  PL: 156.2 mg/dL
  RALB: 2.7 g/dL
  TBIL: 0.05 mg/dL
  TC: 77.4 mg/dL
  TG: 145.2 mg/dL
  TP: 6 g/dL
  gamma-GTP: 0.6 IU/L
[4]
  TERMINAL_BW: 359.5 g
  APTT: 20.1 s
  Bas: 0.8%
  Eos: 0.8%
  Fbg: 289.6 mg/dL
  Hb: 15.6 g/dL
  Ht: 45%
  Lym: 80.6%
  MCH: 19.6 pg
  MCHC: 34.6%
  MCV: 56.5 fL
  Mono: 2.4%
  Neu: 14.8%
  PT: 16.6 s
  Plat: 101.5 x10_4/uL
  RBC: 797.2 x10_4/ul
  Ret: 2.1%
  WBC: 134.2 x10_2/uL
  KIDNEY_L: 1.4 g
  KIDNEY_R: 1.4 g
  KIDNEY_TOTAL: 2.7 g
  LIVER: 14.2 g
  A/G: 0.8
  ALP: 1098.4 IU/L
  ALT: 40.8 IU/L
  AST: 61.8 IU/L
  BUN: 17.2 mg/dL
  CRE: 0.2 mg/dL
  Ca: 10.3 mg/dL
  Cl: 104.2 meq/L
  DBIL: 0.018 mg/dL
  GLC: 186.6 mg/dL
  IP: 6.3 mg/dL
  K: 4 meq/L
  LDH: 62.4 IU/L
  Na: 141.6 meq/L
  PL: 139.8 mg/dL
  RALB: 2.8 g/dL
  TBIL: 0.058 mg/dL
  TC: 71.4 mg/dL
  TG: 108 mg/dL
  TP: 6.3 g/dL
  gamma-GTP: 0.6 IU/L
[5]
  TERMINAL_BW: 200.8 g
  APTT: 15 s
  Bas: 0.2%
  Eos: 1.2%
  Fbg: 288.6 mg/dL
  Hb: 14.4 g/dL
  Ht: 43.5%
  Lym: 79.6%
  MCH: 20.5 pg
  MCHC: 33.2%
  MCV: 61.8 fL
  Mono: 2.4%
  Neu: 16.2%
  PT: 16 s
  Plat: 125 x10_4/uL
  RBC: 705 x10_4/ul
  Ret: 4.5%
  WBC: 87.2 x10_2/uL
  KIDNEY_L: 0.9 g
  KIDNEY_R: 0.9 g
  KIDNEY_TOTAL: 1.8 g
  LIVER: 9.1 g
  A/G: 0.8
  ALP: 1755.4 IU/L
  ALT: 45.4 IU/L
  AST: 63 IU/L
  BUN: 13.8 mg/dL
  CRE: 0.2 mg/dL
  Ca: 10.7 mg/dL
  Cl: 106.2 meq/L
  DBIL: 0.016 mg/dL
  GLC: 174.4 mg/dL
  IP: 8 mg/dL
  K: 4.4 meq/L
  LDH: 86.2 IU/L
  Na: 143.8 meq/L
  PL: 155.8 mg/dL
  RALB: 2.6 g/dL
  TBIL: 0.052 mg/dL
  TC: 94.2 mg/dL
  TG: 93 mg/dL
  TP: 5.8 g/dL
  gamma-GTP: 0.6 IU/L
[6]
  TERMINAL_BW: 206.8 g
  APTT: 16.2 s
  Bas: 0%
  Eos: 1.4%
  Fbg: 413.4 mg/dL
  Hb: 15.3 g/dL
  Ht: 45.5%
  Lym: 70.8%
  MCH: 20.6 pg
  MCHC: 33.5%
  MCV: 61.6 fL
  Mono: 2.4%
  Neu: 24.6%
  PT: 15.9 s
  Plat: 108.8 x10_4/uL
  RBC: 740.8 x10_4/ul
  Ret: 3.1%
  WBC: 99.3 x10_2/uL
  KIDNEY_L: 0.9 g
  KIDNEY_R: 1 g
  KIDNEY_TOTAL: 1.9 g
  LIVER: 9.5 g
  A/G: 0.8
  ALP: 1572.2 IU/L
  ALT: 42.6 IU/L
  AST: 64.2 IU/L
  BUN: 14.4 mg/dL
  CRE: 0.2 mg/dL
  Ca: 10.6 mg/dL
  Cl: 104.8 meq/L
  DBIL: 0.008 mg/dL
  GLC: 169.2 mg/dL
  IP: 8 mg/dL
  K: 4.1 meq/L
  LDH: 68.2 IU/L
  Na: 143.8 meq/L
  PL: 144.6 mg/dL
  RALB: 2.7 g/dL
  TBIL: 0.042 mg/dL
  TC: 97 mg/dL
  TG: 29.6 mg/dL
  TP: 5.9 g/dL
  gamma-GTP: 0.8 IU/L
[7]
  TERMINAL_BW: 250.8 g
  APTT: 16.2 s
  Bas: 0.6%
  Eos: 0.8%
  Fbg: 326.6 mg/dL
  Hb: 15 g/dL
  Ht: 44.7%
  Lym: 76.6%
  MCH: 19.7 pg
  MCHC: 33.6%
  MCV: 58.6 fL
  Mono: 2.4%
  Neu: 19.2%
  PT: 16.6 s
  Plat: 110.7 x10_4/uL
  RBC: 763.4 x10_4/ul
  Ret: 2.8%
  WBC: 128.1 x10_2/uL
  KIDNEY_L: 1 g
  KIDNEY_R: 1 g
  KIDNEY_TOTAL: 2 g
  LIVER: 12.8 g
  A/G: 0.8
  ALP: 1690.2 IU/L
  ALT: 39.8 IU/L
  AST: 59.2 IU/L
  BUN: 15.8 mg/dL
  CRE: 0.2 mg/dL
  Ca: 10.9 mg/dL
  Cl: 104 meq/L
  DBIL: 0.012 mg/dL
  GLC: 164.2 mg/dL
  IP: 7.6 mg/dL
  K: 4.3 meq/L
  LDH: 51.2 IU/L
  Na: 143.6 meq/L
  PL: 135 mg/dL
  RALB: 2.6 g/dL
  TBIL: 0.042 mg/dL
  TC: 78.6 mg/dL
  TG: 62.8 mg/dL
  TP: 6 g/dL
  gamma-GTP: 0.6 IU/L
[8]
  TERMINAL_BW: 303.4 g
  APTT: 22.2 s
  Bas: 0.3%
  Eos: 1%
  Fbg: 311.3 mg/dL
  Hb: 15.8 g/dL
  Ht: 46.1%
  Lym: 82%
  MCH: 19.1 pg
  MCHC: 34.3%
  MCV: 55.9 fL
  Mono: 1.7%
  Neu: 14%
  PT: 16.4 s
  Plat: 97.9 x10_4/uL
  RBC: 824.3 x10_4/ul
  Ret: 2%
  WBC: 104.7 x10_2/uL
  KIDNEY_L: 1.2 g
  KIDNEY_R: 1.2 g
  KIDNEY_TOTAL: 2.4 g
  LIVER: 16.8 g
  A/G: 0.9
  ALP: 1692.3 IU/L
  ALT: 39.7 IU/L
  AST: 57.7 IU/L
  BUN: 14.7 mg/dL
  CRE: 0.2 mg/dL
  Ca: 10.7 mg/dL
  Cl: 103.7 meq/L
  DBIL: 0.0167 mg/dL
  GLC: 174 mg/dL
  IP: 7.1 mg/dL
  K: 4 meq/L
  LDH: 50 IU/L
  Na: 143 meq/L
  PL: 97.7 mg/dL
  RALB: 2.9 g/dL
  TBIL: 0.0467 mg/dL
  TC: 56.3 mg/dL
  TG: 35.3 mg/dL
  TP: 6.3 g/dL
  gamma-GTP: 0.7 IU/L
